# Assay results published in patent US20230021483A1, “[…] […] METHOD AND CLASSIFICATION OF PHARMACEUTICAL COMPONENTS BY USING TRANSCRIPTOMES” (National Institutes of Biomedical Innovation, Health and …, priority 2016, published 2023).
# Tests used:
# [1] = system: adjuvant-associated biological themes in LV, SP, LN
# How it was run: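 Enrichment score S sums −log(p) over consensus themes whose names contain a pre-selected adjuvant-associated term such as "stress" or "cytokine". Consensus requires a theme in all three mice of a group, p<0.05. Themes come from TargetMine analysis of genes with eij/ei(c)>2.0, Fisher's exact test, Holm-Bonferroni-corrected.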
# [2] = system: liver (LV); assay: Whole organ transcriptome (GeneChip microarray) of liver 6 h after adjuvant administration: sDEGs, hierarchical clustering; type: in vivo, C57BL/6 mice; on cluster of strongly responding individual samples in LV (clustering exceptions): key: G1 (interferon signaling); G2 (metabolism of lipids and lipoproteins); G3 (response to stress); G4 (response to wounding); G5 (phosphate-containing compound metabolic process); G6 (phagosome)
substance,measurement,setting,value
"D35: A class CpG ODN (5′-GGTGCATCGATGCAGGGGGG-3′), TLR9 ligand (DNA GGTGCATCGATGCAGGGGGG; chemistry not given here)","tissue damage-associated annotations (cell death, wounding) in LNs","[1]; LN, i.d., fold change >2",did not induce cell death and wounding in LNs
same,GO annotation: Cytokine-cytokine receptor interaction (Term: cytokine),"[1]; LV, ID",0
same,GO annotation: Cytokine-cytokine receptor interaction|Endocytosis (Term: cytokine),"[1]; LV, ID",5.2
same,GO annotation: I-kappaB kinase/NF-kappaB signaling (Term: NF-kappa B signaling pathway),"[1]; LV, ID",0
same,GO annotation: NF-kappa B signaling pathway (Term: NF-kappa B signaling pathway),"[1]; LV, ID",5.27
same,GO annotation: TNF signaling pathway (Term: TNF signaling pathway),"[1]; LV, ID",12.1
same,GO annotation: activation of immune response (Term: immune response),"[1]; LV, ID",0
same,GO annotation: activation of innate immune response (Term: innate immune response),"[1]; LV, ID",0
same,GO annotation: acute inflammatory response (Term: inflammatory response),"[1]; LV, ID",0
same,GO annotation: adaptive immune response (Term: adaptive immune response),"[1]; LV, ID",0
same,GO annotation: apoptotic process (Term: apoptosis),"[1]; LV, ID",0
same,GO annotation: apoptotic signaling pathway (Term: apoptosis),"[1]; LV, ID",0
same,GO annotation: cell chemotaxis (Term: chemotaxis),"[1]; LV, ID",4.51
same,GO annotation: cell death (Term: cell death),"[1]; LV, ID",5.7
same,GO annotation: cell migration (Term: migration),"[1]; LV, ID",0
same,GO annotation: cellular response to cytokine stimulus (Term: cytokine),"[1]; LV, ID",3.28
same,GO annotation: cellular response to interferon-alpha (Term: IFN alpha),"[1]; LV, ID",0
same,GO annotation: cellular response to stress (Term: stress),"[1]; LV, ID",0
same,GO annotation: chemokine production (Term: chemokine),"[1]; LV, ID",0
same,GO annotation: chemokine-mediated signaling pathway (Term: chemokine),"[1]; LV, ID",0
same,GO annotation: chemotaxis (Term: chemotaxis),"[1]; LV, ID",0
same,GO annotation: cytokine biosynthetic process (Term: cytokine),"[1]; LV, ID",0
same,GO annotation: cytokine metabolic process (Term: cytokine),"[1]; LV, ID",0
same,GO annotation: cytokine production (Term: cytokine),"[1]; LV, ID",0
same,GO annotation: cytokine secretion (Term: cytokine),"[1]; LV, ID",0
same,GO annotation: cytokine-mediated signaling pathway (Term: cytokine),"[1]; LV, ID",0
same,GO annotation: death (Term: cell death),"[1]; LV, ID",0
same,GO annotation: defense response (Term: defense response),"[1]; LV, ID",5.76
same,GO annotation: defense response to Gram-positive bacterium (Term: defense response),"[1]; LV, ID",0
same,GO annotation: defense response to bacterium (Term: defense response),"[1]; LV, ID",0
same,GO annotation: defense response to other organism (Term: defense response),"[1]; LV, ID",0
same,GO annotation: defense response to protozoan (Term: defense response),"[1]; LV, ID",0
same,GO annotation: defense response to virus (Term: defense response),"[1]; LV, ID",0
same,GO annotation: granulocyte chemotaxis (Term: chemotaxis),"[1]; LV, ID",0
same,GO annotation: granulocyte migration (Term: migration),"[1]; LV, ID",0
same,GO annotation: immune response (Term: immune response),"[1]; LV, ID",0
same,GO annotation: immune response-activating signal transduction (Term: immune response),"[1]; LV, ID",0
same,GO annotation: immune response-regulating signaling pathway (Term: immune response),"[1]; LV, ID",0
same,GO annotation: inflammatory response (Term: inflammatory response),"[1]; LV, ID",0
same,GO annotation: innate immune response (Term: innate immune response),"[1]; LV, ID",0
same,GO annotation: innate immune response-activating signal transduction (Term: innate immune response),"[1]; LV, ID",0
same,GO annotation: interferon-alpha production (Term: IFN alpha),"[1]; LV, ID",0
same,GO annotation: intrinsic apoptotic signaling pathway (Term: apoptosis),"[1]; LV, ID",0
same,GO annotation: leukocyte chemotaxis (Term: chemotaxis),"[1]; LV, ID",0
same,GO annotation: leukocyte migration (Term: migration),"[1]; LV, ID",0
same,GO annotation: leukocyte migration involved in inflammatory response (Term: inflammatory response),"[1]; LV, ID",0
same,GO annotation: lymphocyte chemotaxis (Term: chemotaxis),"[1]; LV, ID",0
same,GO annotation: lymphocyte migration (Term: migration),"[1]; LV, ID",0
same,GO annotation: myeloid leukocyte migration (Term: migration),"[1]; LV, ID",0
same,GO annotation: negative regulation of apoptotic process (Term: apoptosis),"[1]; LV, ID",0
same,GO annotation: negative regulation of cell death (Term: cell death),"[1]; LV, ID",0
same,GO annotation: negative regulation of cytokine production (Term: cytokine),"[1]; LV, ID",0
same,GO annotation: negative regulation of defense response (Term: defense response),"[1]; LV, ID",0
same,GO annotation: negative regulation of immune response (Term: immune response),"[1]; LV, ID",0
same,GO annotation: negative regulation of innate immune response (Term: innate immune response),"[1]; LV, ID",0
same,GO annotation: negative regulation of programmed cell death (Term: cell death),"[1]; LV, ID",0
same,GO annotation: neutrophil chemotaxis (Term: chemotaxis),"[1]; LV, ID",0
same,GO annotation: neutrophil migration (Term: migration),"[1]; LV, ID",0
same,GO annotation: positive regulation of I-kappaB kinase/NF-kappaB signaling (Term: NF-kappa B signaling pathway),"[1]; LV, ID",0
same,GO annotation: positive regulation of adaptive immune response (Term: adaptive immune response),"[1]; LV, ID",0
same,GO annotation: positive regulation of apoptotic process (Term: apoptosis),"[1]; LV, ID",3.18
same,GO annotation: positive regulation of cell death (Term: cell death),"[1]; LV, ID",0
same,GO annotation: positive regulation of cell migration (Term: migration),"[1]; LV, ID",0
same,GO annotation: positive regulation of chemokine production (Term: chemokine),"[1]; LV, ID",0
same,GO annotation: positive regulation of chemotaxis (Term: chemotaxis),"[1]; LV, ID",0
same,GO annotation: positive regulation of cytokine biosynthetic process (Term: cytokine),"[1]; LV, ID",0
same,GO annotation: positive regulation of cytokine production (Term: cytokine),"[1]; LV, ID",0
same,GO annotation: positive regulation of defense response (Term: defense response),"[1]; LV, ID",0
same,GO annotation: positive regulation of immune response (Term: immune response),"[1]; LV, ID",0
same,GO annotation: positive regulation of inflammatory response (Term: inflammatory response),"[1]; LV, ID",0
same,GO annotation: positive regulation of innate immune response (Term: innate immune response),"[1]; LV, ID",0
same,GO annotation: positive regulation of interferon-alpha production (Term: IFN alpha),"[1]; LV, ID",0
same,GO annotation: positive regulation of leukocyte chemotaxis (Term: chemotaxis),"[1]; LV, ID",0
same,GO annotation: positive regulation of leukocyte migration (Term: migration),"[1]; LV, ID",0
same,GO annotation: positive regulation of programmed cell death (Term: cell death),"[1]; LV, ID",3.05
same,GO annotation: positive regulation of response to wounding (Term: wounding),"[1]; LV, ID",0
same,GO annotation: positive regulation of tumor necrosis factor superfamily cytokine (Term: cytokine),"[1]; LV, ID",0
same,GO annotation: production of molecular mediator of immune response (Term: immune response),"[1]; LV, ID",0
same,GO annotation: programmed cell death (Term: cell death),"[1]; LV, ID",0
same,GO annotation: regulation of I-kappaB kinase/NF-kappaB signaling (Term: NF-kappa B signaling pathway),"[1]; LV, ID",0
same,GO annotation: regulation of adaptive immune response (Term: adaptive immune response),"[1]; LV, ID",0
same,GO annotation: regulation of apoptotic process (Term: apoptosis),"[1]; LV, ID",0
same,GO annotation: regulation of apoptotic signaling pathway (Term: apoptosis),"[1]; LV, ID",0
same,GO annotation: regulation of cell death (Term: cell death),"[1]; LV, ID",0
same,GO annotation: regulation of cell migration (Term: migration),"[1]; LV, ID",0
same,GO annotation: regulation of chemokine production (Term: chemokine),"[1]; LV, ID",0
same,GO annotation: regulation of chemotaxis (Term: chemotaxis),"[1]; LV, ID",0
same,GO annotation: regulation of cytokine biosynthetic process (Term: cytokine),"[1]; LV, ID",0
same,GO annotation: regulation of cytokine production (Term: cytokine),"[1]; LV, ID",0
same,GO annotation: regulation of defense response (Term: defense response),"[1]; LV, ID",0
same,GO annotation: regulation of defense response to virus (Term: defense response),"[1]; LV, ID",0
same,GO annotation: regulation of defense response to virus by host (Term: defense response),"[1]; LV, ID",0
same,GO annotation: regulation of immune response (Term: immune response),"[1]; LV, ID",0
same,GO annotation: regulation of inflammatory response (Term: inflammatory response),"[1]; LV, ID",0
same,GO annotation: regulation of innate immune response (Term: innate immune response),"[1]; LV, ID",0
same,GO annotation: regulation of interferon-alpha production (Term: IFN alpha),"[1]; LV, ID",0
same,GO annotation: regulation of intrinsic apoptotic signaling pathway (Term: apoptosis),"[1]; LV, ID",0
same,GO annotation: regulation of leukocyte chemotaxis (Term: chemotaxis),"[1]; LV, ID",0
same,GO annotation: regulation of leukocyte migration (Term: migration),"[1]; LV, ID",0
same,GO annotation: regulation of programmed cell death (Term: cell death),"[1]; LV, ID",0
same,GO annotation: regulation of response to stress (Term: stress),"[1]; LV, ID",0
same,GO annotation: regulation of response to wounding (Term: wounding),"[1]; LV, ID",0
same,GO annotation: regulation of tumor necrosis factor superfamily cytokine production (Term: cytokine),"[1]; LV, ID",0
same,GO annotation: response to cytokine (Term: cytokine),"[1]; LV, ID",8.12
same,GO annotation: response to interferon-alpha (Term: IFN alpha),"[1]; LV, ID",0
same,GO annotation: response to stress (Term: stress),"[1]; LV, ID",9.13
same,GO annotation: response to wounding (Term: wounding),"[1]; LV, ID",0
same,GO annotation: taxis (Term: chemotaxis),"[1]; LV, ID",0
same,GO annotation: tumor necrosis factor superfamily cytokine production (Term: cytokine),"[1]; LV, ID",0
same,IFN beta: cellular response to interferon-beta,"[1]; LV, ID",0
same,IFN beta: interferon-beta production,"[1]; LV, ID",0
same,IFN beta: positive regulation of interferon-beta production,"[1]; LV, ID",0
same,IFN beta: regulation of interferon-beta production,"[1]; LV, ID",0
same,IFN beta: response to interferon-beta,"[1]; LV, ID",0
same,IFN gamma: cellular response to interferon-gamma,"[1]; LV, ID",0
same,IFN gamma: interferon-gamma production,"[1]; LV, ID",0
same,IFN gamma: regulation of interferon-gamma production,"[1]; LV, ID",0
same,IFN gamma: response to interferon-gamma,"[1]; LV, ID",0
same,interleukin-6: interleukin-6 production,"[1]; LV, ID",0
same,interleukin-6: positive regulation of interleukin-6 production,"[1]; LV, ID",0
same,interleukin-6: regulation of interleukin-6 production,"[1]; LV, ID",0
same,interleukin-12: interleukin-12 production,"[1]; LV, ID",0
same,interleukin-12: positive regulation of interleukin-12 production,"[1]; LV, ID",0
same,interleukin-12: regulation of interleukin-12 production,"[1]; LV, ID",0
same,GO annotation: adaptive immune response based on somatic recombination of immune receptors built from immunoglobulin superfamily domains (Term: adaptive immune response),"[1]; mouse, in vivo",0
same,GO annotation: regulation of adaptive immune response based on somatic recombination of immune receptors built from immunoglobulin superfamily domains (Term: adaptive immune response),"[1]; mouse, in vivo",0
same,"Number of gene probes with statistically significant changes (sDEGs), LV, Down","[2]; i.d. administration, liver, fold change <0.667, p<0.01, customized PA call=1, 6 h after adjuvant",36
same,"Number of gene probes with statistically significant changes (sDEGs), LV, Up","[2]; i.d. administration, liver, fold change >1.5, p<0.01, customized PA call=1, 6 h after adjuvant",15
same,cluster of strongly responding individual samples in LV (clustering exceptions),[2]; samples D35_ID_x2 and K3_ID_x3 only,G2
